Data: ChEMBL document CHEMBL1629561, “Inhibition of Bacillus anthracis spore outgrowth by nisin” (Antimicrob Agents Chemother, 2008)
Calls of active or inactive are those of the source. The calls are words filed in the database; no cut-off is given here.

Experiments:
Bacillus anthracis [1] = test: Antibacterial activity against Bacillus anthracis spores assessed as loss of membrane integrity at 0.01 uM by flow cytometry relative to control; assay type: functional, organism-based
Bacillus anthracis [2] = test: Antibacterial activity against Bacillus anthracis spores assessed as loss of membrane integrity at 0.1 uM by flow cytometry relative to control; assay type: functional, organism-based
Bacillus anthracis [3] = test: Antibacterial activity against Bacillus anthracis spores assessed as loss of membrane integrity at 10 uM by flow cytometry relative to control; assay type: functional, organism-based
Bacillus anthracis [4] = test: Antibacterial activity against Bacillus anthracis spores assessed as reduction in membrane potential at 1 uM; assay type: functional, organism-based
Bacillus anthracis [5] = test: Antibacterial activity against Bacillus anthracis spores assessed as inhibition of growth of replicating vegetative bacteria at 1 uM after 5 hrs; assay type: functional, organism-based
Bacillus anthracis [6] = test: Antibacterial activity against Bacillus anthracis spores assessed as reduction in membrane potential at 0.01 uM; assay type: functional, organism-based
Bacillus anthracis [7] = test: Antibacterial activity against Bacillus anthracis spores assessed as reduction in membrane potential at 0.1 uM; assay type: functional, organism-based
Bacillus anthracis [8] = test: Antibacterial activity against Bacillus anthracis spores assessed as reduction in membrane potential at 10 uM; assay type: functional, organism-based
Bacillus anthracis [9] = test: Antibacterial activity against Bacillus anthracis spores assessed as loss of membrane integrity at 1 uM by flow cytometry relative to control; assay type: functional, organism-based
Bacillus anthracis [10] = test: Antibacterial activity against Bacillus anthracis assessed as effect on hydration of spore structure-associated loss in refractility after 10 min by spectroscopy; assay type: functional
Bacillus anthracis [11] = test: Antibacterial activity against Bacillus anthracis spores assessed as inhibition of growth of replicating vegetative bacteria at 0.1 uM after 50 minutes; assay type: functional, organism-based
Bacillus anthracis [12] = test: Antibacterial activity against Bacillus anthracis spores assessed as loss of spore coat by transmission electron microscopy; assay type: functional, organism-based
Bacillus anthracis [13] = test: Antibacterial activity against Bacillus anthracis spores assessed as reduction in membrane potential at 1 uM after 5 hrs by flow cytometry; assay type: functional, organism-based
Bacillus anthracis [14] = test: Antibacterial activity against Bacillus anthracis assessed as effect on spore germination initiation after 5 mins by spectroscopy in presence of 0.1 M MOPS nongerminating condition; assay type: functional, organism-based
Bacillus anthracis [15] = test: Antibacterial activity against Bacillus anthracis assessed as effect on germination initiation-associated loss in spore heat resistance after 5 mins by spectroscopy; assay type: functional
Bacillus anthracis [16] = test: Antibacterial activity against Bacillus anthracis spores assessed as loss of exosporium by transmission electron microscopy; assay type: functional, organism-based
Bacillus anthracis [17] = test: Antibacterial activity against Bacillus anthracis spores assessed as reduction in membrane potential at 0.1 uM after 5 hrs by flow cytometry; assay type: functional, organism-based
Bacillus anthracis [18] = test: Antibacterial activity against Bacillus anthracis spores assessed as inhibition of growth of replicating vegetative bacteria at 10 uM; assay type: functional, organism-based
Bacillus anthracis [19] = test: Antibacterial activity against Bacillus anthracis spores assessed as reduction in membrane potential at 10 uM after 10 hrs by flow cytometry; assay type: functional, organism-based
Bacillus anthracis [20] = test: Antibacterial activity against Bacillus anthracis spores assessed as reduction in membrane potential at 100 uM after 5 hrs by flow cytometry; assay type: functional, organism-based
Bacillus anthracis [21] = test: Antibacterial activity against Bacillus anthracis spores assessed as inhibition of spore germination at 10 uM preincubated for 5 mins with germinating medium measured after 18 hrs; assay type: functional, organism-based
Bacillus anthracis [22] = test: Antibacterial activity against Bacillus anthracis spores assessed as loss of membrane integrity at 100 uM by flow cytometry relative to control; assay type: functional, organism-based
Bacillus anthracis [23] = test: Antibacterial activity against Bacillus anthracis spores assessed as inhibition of growth of replicating vegetative bacteria at 1 uM; assay type: functional, organism-based
Bacillus anthracis [24] = test: Antibacterial activity against Bacillus anthracis spores assessed as inhibition of growth of replicating vegetative bacteria at 100 uM; assay type: functional, organism-based
Bacillus anthracis [25] = test: Antibacterial activity against Bacillus anthracis spores assessed as reduction in membrane potential at 0.1 uM after 10 hrs by flow cytometry; assay type: functional, organism-based
Bacillus anthracis [26] = test: Antibacterial activity against Bacillus anthracis spores assessed as decrease in spore germination initiation at 10 uM preincubated with germination medium measured after 18 hrs; assay type: functional, organism-based
Bacillus anthracis [27] = test: Antibacterial activity against Bacillus anthracis spores assessed as reduction in membrane potential at 10 uM after 5 hrs by flow cytometry; assay type: functional, organism-based
Bacillus anthracis [28] = test: Antibacterial activity against Bacillus anthracis spores assessed as reduction in membrane potential at 1 uM after 10 hrs by flow cytometry; assay type: functional, organism-based
Bacillus anthracis [29] = test: Antibacterial activity against Bacillus anthracis spores assessed as reduction in membrane potential at 100 uM after 10 hrs by flow cytometry; assay type: functional, organism-based
Bacillus anthracis [30] = test: Antibacterial activity against Bacillus anthracis spores assessed as loss of spore cortex by transmission electron microscopy; assay type: functional, organism-based

`O=C(O)c1cn(C2CC2)c2cc(N3CCNCC3)c(F)cc2c1=O` was tested, and the Activity (Bacillus anthracis [1]) was “Active”, the Activity (Bacillus anthracis [2]) was “Active” and the Activity (Bacillus anthracis [3]) was “Active”. For the same compound, the Activity (Bacillus anthracis [4]) was “inactive”, the inhibition (Bacillus anthracis [5]) was “inactive” and the Activity (Bacillus anthracis [6]) was “inactive”. The Activity (Bacillus anthracis [7]) was “inactive”, the Activity (Bacillus anthracis [8]) was “inactive” and the Activity (Bacillus anthracis [9]) was “Active”.
`C=C(NC(=O)[C@@H](NC(=O)[C@H](Cc1cnc[nH]1)NC(=O)[C@@H](NC(=O)[C@H](CO)NC(=O)[C@@H]1CS[C@@H](C)[C@H]2NC(=O)C(=C)NC(=O)[C@H](NC(=O)[C@H](CCCCN)NC(=O)[C@H](CCSC)NC(=O)[C@H](CC(N)=O)NC(=O)[C@@H]3CS[C@@H](C)[C@@H](NC(=O)[C@H](CCCNN)NC(=O)[C@@H]4CS[C@@H](C)[C@@H](NC(=O)[C@@H]5CSC[C@@H](NC(=O)/C(=C\C)NC(=O)[C@@H](N)[C@@H](C)CC)C(=O)N[C@@H]([C@@H](C)CC)C(=O)NC(=C)C(=O)N[C@@H]([C@@H](C)CC)C(=O)N5)C(=O)N5CCC[C@H]5C(=O)NCC(=O)N4)C(=O)NCC(=O)N[C@@H](C)C(=O)N[C@@H]([C@@H](C)CC)C(=O)N[C@@H](CCSC)C(=O)NCC(=O)N3)[C@H](C)SC[C@H](NC2=O)C(=O)N[C@H](Cc2cnc[nH]2)C(=O)N1)[C@@H](C)CC)C(C)C)C(=O)N[C@@H](CCCCN)C(=O)O` [NISIN] was tested, and the Activity (Bacillus anthracis [10]) was over 65%, the Activity (Bacillus anthracis [2]) was “Active” and the “growth inhibition (GI)” value (Bacillus anthracis [11]) was “Active”. For the same compound, the Activity (Bacillus anthracis [12]) was “inactive”, the Activity (Bacillus anthracis [3]) was “Active” and the Activity (Bacillus anthracis [13]) was “Active”. For the same compound, the Activity (Bacillus anthracis [14]) was “inactive”, the Activity (Bacillus anthracis [15]) was over 80% and the Activity (Bacillus anthracis [16]) was “inactive”. For the same compound, the inhibition (Bacillus anthracis [17]) was “inactive”, the “growth inhibition (GI)” value (Bacillus anthracis [18]) was “Active” and the Activity (Bacillus anthracis [19]) was “Active”. The Activity (Bacillus anthracis [20]) was “Active”, the inhibition (Bacillus anthracis [21]) was “Active” and the Activity (Bacillus anthracis [22]) was “Active”. The “growth inhibition (GI)” value (Bacillus anthracis [23]) was “Active”, the “growth inhibition (GI)” value (Bacillus anthracis [24]) was “Active” and the inhibition (Bacillus anthracis [25]) was “inactive”. The inhibition (Bacillus anthracis [26]) was “Active”, the Activity (Bacillus anthracis [27]) was “Active” and the Activity (Bacillus anthracis [28]) was “Active”. For the same compound, the Activity (Bacillus anthracis [9]) was “Active”, the Activity (Bacillus anthracis [29]) was “Active” and the Activity (Bacillus anthracis [30]) was “inactive”.
